The values that follow are results of earlier work, collected in paper PMC3885546, “Structural Determinants of the 5′-Methylthioinosine Specificity of Plasmodium Purine Nucleoside Phosphorylase” (PLoS ONE, 2014).

As usually defined, the Km is the substrate concentration at which the rate is half of its maximum. As a reminder, the kcat is the number of substrate molecules converted per active site and unit of time at saturation.

This data set concerns TgPNP. The conditions noted are these: cited from earlier work; for Km / kcat: substrate = label.

As to 5′-methylthioinosine, the “efficiency for MTI when compared to inosine” value is on record as below 0.5%. Besides, for the setting “ref Chaudhary, et al. [18]”, the Michaelis constant (Km) is 31 ± 3 µM and the kcat was 0.03 ± 0.00 s⁻¹.

With `OC[C@H]1O[C@@H](n2cnc3c(O)ncnc32)[C@H](O)[C@@H]1O` [Inosine, inosine], for the setting “ref Chaudhary, et al. [18]”, the “Ino/MTI kcat/Km Ratio” value was 230, the Km is 13 ± 1 µM and the kcat is 2.6 ± 0.0 s⁻¹.
